Measurements from patent US20060094722A1 (Eisai Co., Ltd., priority 2002, published 2006).
Where a name gives a salt, the structure may show the parent alone. Read-outs that look alike come from different tables or passages of the source.

Experiments:
[1] = system: DPPIV-deficient male Fisher rats
Method: Animals: DPPIV-deficient male Fisher rats (purchased from Charles River Japan, Inc.)
Each test compound was suspended in a solution of 0.5% methyl cellulose at the doses indicated in Table 2, and then administered orally at a volume of 5 mL/kg. The vehicle control group was orally administered a solution of 0.5% methyl cellulose at a volume of 5 mL/kg.
An unanesthetized rat was lightly cut at the caudal vein with a razor blade and bled immediately before, and at 1, 3, and 5 hours after the administration of a test compound or a solution of 0.5% methyl cellulose. 250 μL of blood was collected from the rat using a heparinized capillary and transferred into a centrifugation tube. The supernatant obtained by centrifugation (at 10000 g at 4° C. for 2 minutes) was assayed for GLP-1 level using Active GLP-1 ELISA kit (Linco).

[2] = system: DPPIV-intact normal male Fisher rats; assay: Influences of metformin and DPPIV inhibitors (Examples 82, 119, 120, 122, 229, 267), singly or in combination, on GLP-1 level in normal rats; format: in vivo, rat; settings: 3 hours
Method: Animals: DPPIV-Intact Normal Male Fisher Rats (Purchased from CLEA Japan, Inc.)
250 μL of blood was collected from the rat using a heparinized capillary and transferred into a centrifugation tube.

[3] = target: T1, DPPIV obtained from swine kidney (Sus scrofa, UniProt P22411); assay: Assay for the DPPIV-inhibiting activity; format: biochemical; settings: DPPIV 10 mU/mL, Gly-Pro-p-nitroanilide 0.33 mM, absorbance 405 nm
T1 construct: DPPIV obtained from swine kidney; from tissue; host or cells: swine kidney
T1 sequence (P22411 whole entry): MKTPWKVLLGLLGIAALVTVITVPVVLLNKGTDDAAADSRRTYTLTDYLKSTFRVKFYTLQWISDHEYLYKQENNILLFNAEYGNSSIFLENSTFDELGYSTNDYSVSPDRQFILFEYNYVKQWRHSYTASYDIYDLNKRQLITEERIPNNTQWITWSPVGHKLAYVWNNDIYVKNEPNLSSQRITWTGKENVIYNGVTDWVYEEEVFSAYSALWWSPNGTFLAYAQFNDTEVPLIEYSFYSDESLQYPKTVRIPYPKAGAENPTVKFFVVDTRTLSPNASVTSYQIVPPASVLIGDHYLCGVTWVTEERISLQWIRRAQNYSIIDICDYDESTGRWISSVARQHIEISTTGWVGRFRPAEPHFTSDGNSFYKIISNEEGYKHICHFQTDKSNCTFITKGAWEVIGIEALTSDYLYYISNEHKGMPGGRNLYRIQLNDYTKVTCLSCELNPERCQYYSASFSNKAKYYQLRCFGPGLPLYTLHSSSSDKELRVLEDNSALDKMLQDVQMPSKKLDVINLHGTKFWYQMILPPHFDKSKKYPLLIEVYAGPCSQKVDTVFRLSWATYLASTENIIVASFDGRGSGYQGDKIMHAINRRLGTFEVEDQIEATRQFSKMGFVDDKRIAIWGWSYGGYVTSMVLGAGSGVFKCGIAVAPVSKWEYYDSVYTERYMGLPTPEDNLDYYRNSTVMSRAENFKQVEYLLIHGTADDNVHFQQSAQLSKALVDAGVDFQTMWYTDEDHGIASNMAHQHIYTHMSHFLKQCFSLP
Method: DPPIV obtained from swine kidney was dissolved in a reaction buffer (50 mM Tris-HCl (pH 7.4)/0.1% BSA) at a fmal concentration of 10 mU/mL. A 110 μL aliquot of this enzyme solution was added to the reaction system, and then 15 μL of an agent was added. The reaction solution was incubated at room temperature for 20 minutes. 25 μL of a solution containing 2 mM Gly-Pro-p-nitroanilide was added to the reaction solution (at the final concentration of 0.33 mM) to start the enzyme reaction. The reaction time was 20 minutes. 25 μL of 1N phosphate solution was added to stop the reaction. […] The degree of inhibition to the enzyme reaction was determined, and IC50 was computed based on the absorbance.

[4] = system: DPPIV-intact normal male Fisher rats; settings: 30 mg/kg p.o.
Method: Each test compound was suspended in a solution of 0.5% methyl cellulose at the doses indicated in Table 3, and then administered orally at a volume of 5 mL/kg. The vehicle control group was orally administered a solution of 0.5% methyl cellulose at a volume of 5 mL/kg.
An unanesthetized rat was lightly cut at the caudal vein with a razor blade and bled immediately before, and at 1, 3, and 5 hours after administration of a test compound or a solution of 0.5% methyl cellulose. 250 μL of blood was collected from the rat using a heparinized capillary and transferred into a centrifugation tube. The supernatant obtained by centrifugation (at 10000 g at 4° C. for 2 minutes) was assayed for GLP-1 level using Active GLP-1 ELISA kit (Linco).

Zucker fa/fa rats [5] = settings: for Blood glucose level at each time point (hr) after oral glucose administration / GLP-1 concentration at each time point (hr) after oral glucose administration (% of Pre) / Insulin concentration at each time point (hr) after oral glucose administration: 30 mg/kg p.o. 0.5 hour before glucose load
Method: (§1) Animals: Zucker fa/fa Rats, an Animal Model for TypeII Diabetes (Purchased from Charles River Japan, Inc.)
(§2) Each test compound was dissolved in distilled water at the doses shown in the Tables indicated below, and then administered orally at a volume of 5 mL/kg. The vehicle control group was orally administered distilled water at a volume of 5 mL/kg. […] The rats were tested for glucose tolerance on the first day of the administration series. In the test, distilled water and the test compounds were given 0.5 hour before glucose load.
For the glucose tolerance test, an unanesthetized rat was lightly cut at the caudal vein with a razor blade and bled immediately before the administration of a test compound or distilled water, and immediately before, and at 0.5, 1, 2, and 3 hours after glucose load. 250 μL of blood was collected from the rat using a heparinized capillary and transferred into a centrifugation tube. The supernatant obtained by centrifugation (at 10000 g at 4° C. for 2 minutes) was assayed for active GLP-1 level using Active GLP-1 ELISA kit (Linco). At the same time, 10 μL of blood was collected and mixed with 140 μL of a 0.6 M perchloric acid solution. The mixture was centrifuged (at 3000 g at 4° C. for 10 minutes), and the resulting supernatant was assayed for glucose using Glucose Test Wako II (Wako Pure Chemical Industries, Inc.). The level of blood glucose alone was determined at the time of measurement 3 hours after glucose load.

Zucker fa/fa rats [6] = settings: 30 mg/kg p.o. twice daily for 14 days
Method: as §1, §2
Food intake and body weight were determined at 4:00 p.m after the 14-day administration series. Total food intake and weight gain over 14 days were determined for each experimental group.

Method for BALB/c AnCrj mice: Animals: BALB/c AnCrj Mice (Purchased from Charles River Japan, Inc.)
5-FU (purchased from Sigma) was suspended in a solution of 0.5% methyl cellulose, and then administered orally at a volume of 10 mL/kg/day (8 a.m. to 9 a.m.) for 3 days (60 mg/kg). […] The vehicle control group was orally administered a solution of 0.5% methyl cellulose at a volume of 10 mL/kg.
Mice were fasted for 18 hours following the afternoon administration on the third day of the administration series. On the following day, the mice were killed by cervical dislocation, and then the whole small intestine was excised and the wet weight was measured.

CCCCNC(=N)NC(=N)N [Buformin, buformin]
GLP-1 concentration at each time point (hr) after oral administration (% of Pre) ([1]; 30 mg/kg p.o., 0 hr): 100 ± 0.0 % of Pre
GLP-1 concentration at each time point (hr) after oral administration (% of Pre) ([1]; 30 mg/kg p.o., 1 hr): 118.7 ± 9.3 % of Pre
GLP-1 concentration at each time point (hr) after oral administration (% of Pre) ([1]; 30 mg/kg p.o., 3 hr): 122.7 ± 7.1 % of Pre
GLP-1 concentration at each time point (hr) after oral administration (% of Pre) ([1]; 30 mg/kg p.o., 5 hr): 114.6 ± 4.4 % of Pre
GLP-1 concentration at each time point (hr) after oral administration (% of Pre) ([1]; 100 mg/kg p.o., 0 hr): 100 ± 0.0 % of Pre
GLP-1 concentration at each time point (hr) after oral administration (% of Pre) ([1]; 100 mg/kg p.o., 1 hr): 163.6 ± 19.6 % of Pre
GLP-1 concentration at each time point (hr) after oral administration (% of Pre) ([1]; 100 mg/kg p.o., 1 hr, listed as buformin): significantly elevated
GLP-1 concentration at each time point (hr) after oral administration (% of Pre) ([1]; 100 mg/kg p.o., 3 hr): 171.2 ± 9.1 % of Pre
GLP-1 concentration at each time point (hr) after oral administration (% of Pre) ([1]; 100 mg/kg p.o., 5 hr): 195.8 ± 36.6 % of Pre
GLP-1 concentration at each time point (hr) after oral administration (% of Pre) ([1]; 100 mg/kg p.o., 5 hr, listed as buformin): significantly elevated

O=c1[nH]cc(F)c(=O)[nH]1 [Example 5-FU, 5-Fluorouracil]
wet weight of mouse small intestine (BALB/c AnCrj mice; 5-FU 60 mg/kg p.o. for 3 days): significantly decreased

CC#CCn1c(N2CCNCC2)nc2nc(C#N)n(C)c(=O)c21.O=C(O)C(F)(F)F [Example 82, 7-(2-Butynyl)-2-cyano-1-methyl-8-(piperazin-1-yl)-1,7-dihydropurin-6-one trifluoroacetate]
GLP-1 concentration 3 hours after oral administration (% of Pre) ([2]; 20 mg/kg p.o.): 97.3 ± 2.1 % of Pre

CC#CCn1c(N2CCNCC2)nc2cnn(C)c(=O)c21 [Example 119, 3-(2-Butynyl)-5-methyl-2-(piperazin-1-yl)-3,5-dihydroimidazo[4,5-d]pyridazin-4-one]
GLP-1 concentration 3 hours after oral administration (% of Pre) ([2]; 10 mg/kg p.o.): 98.9 ± 2.2 % of Pre
IC50 ([3]; read-out: IC50): 154 nM

CC#CCn1c(N2CCCC(N)C2)nc2cnn(C)c(=O)c21.O=C(O)C(F)(F)F (stereo not drawn) [Example 120, 2-(3-Aminopiperidin-1-yl)-3-(2-butynyl)-5-methyl-3,5-dihydroimidazo[4,5-d]pyridazin-4-one trifluoroacetate]
GLP-1 concentration 3 hours after oral administration (% of Pre) ([2]; 10 mg/kg p.o.): 104.8 ± 2.9 % of Pre

CC#CCn1c(N2CCNCC2)nc2nc(Oc3ccccc3C(N)=O)n(C)c(=O)c21 [Example 122, 2-[7-(2-Butynyl)-1-methyl-6-oxo-8-(piperazin-1-yl)-6,7-dihydro-1H-purin-2-yloxy]benzamide]
GLP-1 concentration 3 hours after oral administration (% of Pre) ([2]; 10 mg/kg p.o.): 108.2 ± 6.6 % of Pre
IC50 ([3]; read-out: IC50): 15.3 nM

CC#CCn1c(N2CCNCC2)nc2nc(C#N)n(Cc3ccccc3C#N)c(=O)c21.Cl [Example 229, 7-(2-Butynyl)-1-(2-cyanobenzyl)-6-oxo-8-(piperazin-1-yl)-6,7-dihydro-1H-purine-2-carbonitrile hydrochloride]
GLP-1 concentration 3 hours after oral administration (% of Pre) ([2]; 10 mg/kg p.o.): 102.5 ± 1.7 % of Pre

CC#CCn1c(N2CCNCC2)nc2cnn(Cc3ccccc3C#N)c(=O)c21.O=C(O)C(F)(F)F [Example 267, 2-[3-(2-Butynyl)-4-oxo-2-(piperazin-1-yl)-3,4-dihydroimidazo[4,5-d]pyridazin-5-ylmethyl]benzonitrile trifluoroacetate]
GLP-1 concentration 3 hours after oral administration (% of Pre) ([2]; 10 mg/kg p.o.): 110.0 ± 9.0 % of Pre

CC#CCn1c(N2CCNCC2)nc2c1c(=O)n(CCc1ccccc1)c(=O)n2CC(=O)NC [Example 419, 2-[7-(2-Butynyl)-2,6-dioxo-1-(2-phenethyl)-8-(piperazin-1-yl)-1,2,6,7-tetrahydropurin-3-yl]-N-methylacetamide hydrochloride]
IC50 ([3]; IC50 (nM)): 1.55 nM

CC#CCn1c(N2CCNCC2)nc2c1c(=O)n(CCc1ccccc1)c(=O)n2CC(=O)NC1CC1 [Example 420, 2-[7-(2-Butynyl)-2,6-dioxo-1-(2-phenethyl)-8-(piperazin-1-yl)-1,2,6,7-tetrahydropurin-3-yl]-N-cyclopropyl acetamide hydrochloride]
IC50 ([3]; IC50 (nM)): 1.7 nM

CC#CCn1c(N2CCNCC2)nc2c1c(=O)n(CCc1ccccc1)c(=O)n2CC(=O)Nc1ccccc1 [Example 421, 2-[7-(2-Butynyl)-2,6-dioxo-1-(2-phenethyl)-8-(piperazin-1-yl)-1,2,6,7-tetrahydropurin-3-yl]-N-phenylacetamide hydrochloride]
IC50 ([3]; IC50 (nM)): 3.37 nM

C#CCNC(=O)Cn1c(=O)n(CCc2ccccc2)c(=O)c2c1nc(N1CCNCC1)n2CC#CC [Example 422, 2-[7-(2-Butynyl)-2,6-dioxo-1-(2-phenethyl)-8-(piperazin-1-yl)-1,2,6,7-tetrahydropurin-3-yl]-N-(2-propynyl) acetamide hydrochloride]
IC50 ([3]; IC50 (nM)): 0.472 nM

[H]/N=C(/N)N/C(=N/[H])NCCc1ccccc1 [Phenformin, phenformin]
GLP-1 concentration at each time point (hr) after oral administration (% of Pre) ([1]; 30 mg/kg p.o., 0 hr): 100 ± 0.0 % of Pre
GLP-1 concentration at each time point (hr) after oral administration (% of Pre) ([1]; 30 mg/kg p.o., 1 hr): 125.3 ± 10.7 % of Pre
GLP-1 concentration at each time point (hr) after oral administration (% of Pre) ([1]; 30 mg/kg p.o., 3 hr): 120.0 ± 7.2 % of Pre
GLP-1 concentration at each time point (hr) after oral administration (% of Pre) ([1]; 30 mg/kg p.o., 5 hr): 126.7 ± 10.7 % of Pre
GLP-1 concentration at each time point (hr) after oral administration (% of Pre) ([1]; 100 mg/kg p.o., 0 hr): 100 ± 0.0 % of Pre
GLP-1 concentration at each time point (hr) after oral administration (% of Pre) ([1]; 100 mg/kg p.o., 1 hr): 316.9 ± 26.4 % of Pre
GLP-1 concentration at each time point (hr) after oral administration (% of Pre) ([1]; 100 mg/kg p.o., 1 hr, listed as phenformin): significantly elevated
GLP-1 concentration at each time point (hr) after oral administration (% of Pre) ([1]; 100 mg/kg p.o., 3 hr): 330.7 ± 112.4 % of Pre
GLP-1 concentration at each time point (hr) after oral administration (% of Pre) ([1]; 100 mg/kg p.o., 3 hr, listed as phenformin): significantly elevated
GLP-1 concentration at each time point (hr) after oral administration (% of Pre) ([1]; 100 mg/kg p.o., 5 hr): 236.5 ± 20.5 % of Pre
GLP-1 concentration at each time point (hr) after oral administration (% of Pre) ([1]; 100 mg/kg p.o., 5 hr, listed as phenformin): significantly elevated

CC(C)[C@H](N)C(=O)N1CCCC1 [Val-Pyr, valine pyrrolidide]
GLP-1 concentration at each time point (hr) after oral administration (% of Pre) ([4]; 0 hr): 100 ± 0.0 % of Pre
GLP-1 concentration at each time point (hr) after oral administration (% of Pre) ([4]; 1 hr): 127 ± 6 % of Pre
GLP-1 concentration at each time point (hr) after oral administration (% of Pre) ([4]; 3 hr): 136 ± 20 % of Pre
GLP-1 concentration at each time point (hr) after oral administration (% of Pre) ([4]; 5 hr): 91 ± 2 % of Pre
Wet weight of small intestine (BALB/c AnCrj mice; 30 mg/kg p.o. twice a day, 5-FU treatment 60 mg/kg for 3 days, mice): 0.637 ± 0.015 g
Wet weight of small intestine (g) (BALB/c AnCrj mice; 30 mg/kg p.o. twice a day, 5-FU treatment 60 mg/kg for 3 days, mice, listed as DPPIV inhibitor): no alteration
level of insulin during the glucose tolerance test (Zucker fa/fa rats [5]): increased significantly
Blood glucose level at each time point (hr) after oral glucose administration (Zucker fa/fa rats [5]; 0 hr): 110.5 ± 3.3 mg/dL
GLP-1 concentration at each time point (hr) after oral glucose administration (% of Pre) (Zucker fa/fa rats [5]; 0 hr): 119.5 ± 3.6 % of Pre
Insulin concentration at each time point (hr) after oral glucose administration (Zucker fa/fa rats [5]; 0 hr): 13.1 ± 1.2 ng/mL
Blood glucose level at each time point (hr) after oral glucose administration (Zucker fa/fa rats [5]; 0.5 hr): 166.0 ± 9.9 mg/dL
GLP-1 concentration at each time point (hr) after oral glucose administration (% of Pre) (Zucker fa/fa rats [5]; 0.5 hr): 217.6 ± 24.6 % of Pre
Insulin concentration at each time point (hr) after oral glucose administration (Zucker fa/fa rats [5]; 0.5 hr): 32.4 ± 3.2 ng/mL
Blood glucose level at each time point (hr) after oral glucose administration (Zucker fa/fa rats [5]; 1 hr): 167.1 ± 7.0 mg/dL
GLP-1 concentration at each time point (hr) after oral glucose administration (% of Pre) (Zucker fa/fa rats [5]; 1 hr): 197.5 ± 20.4 % of Pre
Insulin concentration at each time point (hr) after oral glucose administration (Zucker fa/fa rats [5]; 1 hr): 27.7 ± 5.0 ng/mL
Blood glucose level at each time point (hr) after oral glucose administration (Zucker fa/fa rats [5]; 2 hr): 139.3 ± 3.3 mg/dL
GLP-1 concentration at each time point (hr) after oral glucose administration (% of Pre) (Zucker fa/fa rats [5]; 2 hr): 128.3 ± 5.4 % of Pre
Insulin concentration at each time point (hr) after oral glucose administration (Zucker fa/fa rats [5]; 2 hr): 14.4 ± 2.6 ng/mL
Blood glucose level at each time point (hr) after oral glucose administration (Zucker fa/fa rats [5]; 3 hr): 115.1 ± 3.0 mg/dL
Blood glucose level at each time point (hr) after oral glucose administration (Zucker fa/fa rats [5]; −0.5 hr): 102.6 ± 3.0 mg/dL
GLP-1 concentration at each time point (hr) after oral glucose administration (% of Pre) (Zucker fa/fa rats [5]; −0.5 hr): 100.0 ± 0.0 % of Pre
Insulin concentration at each time point (hr) after oral glucose administration (Zucker fa/fa rats [5]; −0.5 hr): 8.8 ± 1.1 ng/mL
glucose tolerance (Zucker fa/fa rats [5]; glucose tolerance test): improved
Total food intake for 14 days (Zucker fa/fa rats [6]): 491.8 ± 11.1 g
Weight gain for 14 days (Zucker fa/fa rats [6]): 60.9 ± 4.4 g
